Source: patent US8524744B2, “Arylamine ketones, their preparation methods, the pharmaceutical composition containing them and their use” (Institute of Mataria Medica, Chinese Academy of Medical …, priority 2004, dated 2013)
Structures can show the parent of a compound that is named as a salt. Each block holds one compound with its values, some of them ahead of it.

What was measured:
[1] = system: patients with rheumatoid arthritis; conditions: after administration for 4 weeks; cited from earlier work
[2] = system: NF-κB, TNF-α mRNA; conditions: infected mice; cited from earlier work
[3] = system: mouse with arthritis induced by type III collagen; conditions: cited from earlier work
[4] = system: polymorphonuclear leucocytes from rat pleural cavity; assay: release of β-glucuronidase by polymorphonuclear leucocytes from rat pleural cavity in vitro (PAF as irritant); assay type: cell-based; conditions: for Inhibition (%) of β-glucuronidase release: Dose 1 × 10^−5 mol · L^−1; for IC50: Leucocyte, rat polymorphonuclear leucocytes
Protocol: 1% carrageenan was injected into the right pleural cavity of Wistar rat to induce polymorphonuclear leucocytes. The cells was suspended in Dulbecoo's buffer at the concentration of 2.5×10^6 cells·ml^1. The fluid containing the compound or solvent and 250 μl of cells suspension were added in test tube and incubated in 37° C. waterbath for 15 min. Then 2.5 μl of cytochalasin B (1×10^−3 mol·L^−1) was added and the reaction was continued for 5 min. Then 2.5 μl of PAF (1×10^−4 mol·L^−1) was added and for another 5 min. The test tubes were put into ice bath to stop the reaction. The supernatant was isolated and used as the β-glucuronidase release fluid. 25 μl of the enzyme fluid, 25 μl of phenolphthalein-glucuronic acid (2.5 mmol·L^−1) and 100 μl of acetic acid buffer (0.1 mol·L^−1) were added into each well of 96-well plate which was placed into incubater and kept at 37° C.3 for 18 hr. 150 μl of NaOH (0.3 mol·L^−1) was added in each well to cease the reaction and the optical density was read at 550 nm.

[5] = system: mouse paw swelling induced by carrageenan; assay: mouse paw swelling induced by carrageenan; assay type: in vivo; conditions: orally, 50 mg·kg^−1, Kunming mice
Protocol: Kunming mice (male, 18-22 g) were randomly divided into two groups (treatment and control) with 10 animals for each group. The animals were orally administrated with compounds or solvent, respectively. 1 hr later, 50 μl of 1% carrageenan was intracutaneously injected into the sole of right posterior foot. After 4 hr the animals were sacrificed by displacing cervical vertebra. The two paws were cut off at ankle joint and weighed. The swelling was evaluated by the difference of the weights of two paws.

[6] = system: mouse ear edema induced by croton oil; assay: mouse ear edema induced by croton oil; assay type: in vivo; conditions: orally, 50 mg·kg^−1, Kunming mice
Protocol: Kuming mice (male, 18-22 g) were randomly divided into two groups (treatment and control) with 10 animals for each group. The animals were orally administrated with compounds or solvent, respectively. 1 hr later, 50 μl of 2% croton oil was smeared on the two sides of mouse left ear. After 4 hr the mice were sacrificed by cervical vertebra displacement. The two ears were cut off and the central sections were excised using a punch with a diameter of 8 mm and weighed. Edema was quantified as the weight difference between the two sections.

[7] = system: macrophages from mouse peritoneal cavity; assay: chemotaxis of macrophages from mouse peritoneal cavity induced by PAF; assay type: cell-based; conditions: Macrophage, 2 hr, read-out: IC50, inhibition of chemotaxis
Protocol: 4% of sodium mercaptoethanol was injected into C57BL/6 mouse peritoneal cavity to induce macrophages. The cells in peritoneal cavity were collected after injection for 3-4 days. 27 μl of irritant was added into the well at low part of the chemotaxis plate. The filter membrane was covered on the wells and the top part of the plate was assembled on the filter. 55 μl of cells suspension with various concentrations of the compounds or solvent was added into the well at top part of the plate. The plate was placed into incubater with 5% CO2 at 37° C. for 2 hr. The filter was taken out, stained by hematoxylin and dehydrated. The cells migrated into the other side of the filter was counted by microscope.

[8] = system: production of NO in macrophages from mouse peritoneal cavity; assay: production of NO in macrophages from mouse peritoneal cavity (LPS and PAF); assay type: cell-based; conditions: Macrophage, 24 h, read-out: IC50, inhibition of the production of NO
Protocol: 4% of sodium mercaptoethanol was injected into C57BL/6 mouse peritoneal cavity to induce macrophages. The cells in peritoneal cavity were collected after injection for 3-4 days. 500 μl of cells were inoculated in the well of 24 wells plate which was placed in the CO2 incubator at 37° C. for 2.5 hr to make the cells adherent. The cells were rinsed by 1640 culture media. 495 μl of 1640 media containing irritant and 5 μl the compound or solvent were added into each well. The plate was incubated for 24 hr. The supernatant was taken out and mixed with the same volume of Griess agent. The reaction fluid was kept at room temperature for 10 min and the optical density was measured at 550 nm. The numbers read was transferred into the content of NO.

[9] = system: production of TNF-α by macrophages from mouse peritoneal cavity; assay: production of TNF-α by macrophages from mouse peritoneal cavity (LPS, L929 bioassay); assay type: cell-based; conditions: Macrophage, 24 h, read-out: IC50, inhibition of the production of TNF-α
Protocol: The macrophages from mouse peritoneal cavity were prepared as described before. 500 μl of cells were inoculated in 48-well plate which was incubated with 5% CO2 at 37° C. for 2.5 hr. The compounds and LPS (final concentration: 10 μg·ml^−1) were added into each well of the plate. After incubating for 24 hr the supernatant was collected. The content of TNF-α was determined by following method. 100 μl of L929 cells (2×10^5cells·ml^−1) with 100 μl of RPMI-1640 or supernatant collected above were inoculated into 96-well plate which incubated under 5% CO2 at 37° C. for 20 hr. The supernatant was discarded. 200 μl of 0.5% crystal violet was added into each well. 10 min later crystal violet outside of the cells was rinsed using normal saline. The cells were dried under room temperature. 100 μl of 10% SDS was added into each well. After the cells were lysed completely the optical density was measured at 570 nm. The well of 1640 media was as the control, The content of TNF-a was evaluated by the percentage of L929 cells survival.

[10] = system: cutaneous vascular permeability in mice induced by PAF; assay: increase of cutaneous vascular permeability in mice induced by PAF; assay type: in vivo, mouse; conditions: orally, 50 mg·kg^−1, Kunming mice
Protocol: Kunming mice (male, 18-22 g) were randomly divided into two groups (treatment and control) with 10 animals for each group. The animals were orally administrated with the compounds or solvent, respectively. 1 hr later, 0.25 ml of 1% evans blue dye was injected into the tail vein. After 10 min, 0.1 ml of PAF (1×10^−8 mol·L^−1) was intracutaneously injected into the dorsal skin shaved. 1 hr later, the animals were sacrificed by cervical vertebra displacement. The skin with blue spot was cut off. The evans blue dye was extracted by 0.8 ml of mixed solution of acetone and normal saline (7:3). The supernatant was transferred into the 96-well plate. The optical density was measured at 620 nm.

[11] = target: T1, PAF receptors of macrophages from mouse peritoneal cavity (Mus musculus, UniProt Q62035); assay: competitive binding of [3H]-PAF to its receptors of macrophages from mouse peritoneal cavity; conditions: 4° C, 150 min, read-out: Ki, competition with [3H]-PAF binding
T1 construct: The cells in peritoneal cavity were collected after injection for 3-4 days; endogenous in cells; host or cells: adherent peritoneal macrophages of C57BL/6 mice (primary)
Protocol: 4% of sodium mercaptoethanol was injected into C57BL/6 mouse peritoneal cavity to induce macrophages. The cells in peritoneal cavity were collected after injection for 3-4 days. 500 μl of suspension (5×10^5cells·ml^−1) was inoculated into 24-well culture plate which was placed into the incubator with 5% CO2 at 37° C for 2.5 hr. The non-adherent cells and serum in media were discarded. 490 μl of Tyrode-Hepes solution and 5 μl of [^3H]-PAF (final concentration: 2.8 nmol·L^−1) were added into each well. 5 μl of unlabeled PAF (5 μmol·L^1) was added into the well for the nonspecific binding. The series concentrations of compound were added into the well for the competitive binding and the corresponding volume of solvent was added into the wells for the total binding or the nonspecific binding. The reaction fluid was incubated at 4° C for 150 min and rinsed to wipe off the free labeled ligand. 300 μl of NaOH (0.3 mol·L^−1) was added to lyse the cells. The lysate fluid was transferred into a vial in which 7 ml of scintillation solution was added. The radioactivity strength was measured by scintillation counter.

[12] = system: rat paw swelling; conditions: induced by PAF, carrageenan, histamine, 5-serotonin; cited from earlier work
[13] = system: mouse ear edema; conditions: induced by arachidonic acid; cited from earlier work
[14] = system: rat neutrophils; assay: chemotaxis of rat neutrophils in vitro; assay type: cell-based; conditions: Neutrophil, 4 hr, read-out: IC50, inhibition of chemotaxis
Protocol: The blood was collected from rat common carotid artery and anticoagulated. The neutrophils was isolated by 5% glucose solution and lymphocyte separating medium. 27 μl of irritant was added into the well at low part of the chemotaxis plate. The filter membrane was covered on the wells and the top part of the plate was assembled on the filter. 50 μl of cells suspension with various concentrations of compound or solvent was added into the well at top part of the plate. The plate was incubated at 37° C. for 4 hr. The filter was taken out, stained by hematoxylin and dehydrated. The cells migrated into the other side of the filter was counted by microscope.

[15] = system: new vessels in mouse angiogenesis model; conditions: mouse angiogenesis model induced by synovial fluid of patient with rheumatoid arthritis; cited from earlier work
[16] = system: TNF-α level in synovial fluid of rat ankle joint; conditions: induced by immune complex; cited from earlier work
[17] = system: rat ear edema; conditions: induced by PAF or PMA; cited from earlier work

T1 sequence (Q62035 whole entry): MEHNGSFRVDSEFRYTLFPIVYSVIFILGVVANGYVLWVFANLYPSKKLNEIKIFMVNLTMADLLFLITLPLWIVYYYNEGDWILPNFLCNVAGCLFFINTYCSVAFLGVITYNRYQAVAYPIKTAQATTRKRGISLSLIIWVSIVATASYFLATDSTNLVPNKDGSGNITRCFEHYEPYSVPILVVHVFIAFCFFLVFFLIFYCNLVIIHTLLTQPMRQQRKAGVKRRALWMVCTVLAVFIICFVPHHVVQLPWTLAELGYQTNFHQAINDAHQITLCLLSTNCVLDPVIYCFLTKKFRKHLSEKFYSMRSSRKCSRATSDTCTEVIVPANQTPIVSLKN

SMILES: COc1ccc(NC(=S)N2CCc3c(sc4c3C(c3ccccc3Cl)=NCc3nnc(C)n3-4)C2)cc1 [BN50730]
- symptom of patients with rheumatoid arthritis [1]: significantly improves
- early activity of NF-κB [2]: reduce
- expression of TNF-α mRNA [2]: reduce
- consumption of proteoglycan in cartilage [3]: decrease
- joint swelling [3]: significantly inhibit
- precipitation of fibronectin in cartilage [3]: decrease

SMILES: CCOc1cc(C=CC(=O)CCN2CC(C)OC(C)C2)ccc1O (stereo not shown) [Compound 37, 5-(2,6-Dimethylmorpholinyl)-1-(3-ethoxy-4-hydroxyphenyl)-1-penten-3-one hydrochloride]
- Inhibition (%) of β-glucuronidase release ([4]; Irritant 2 × 10^−7 mol · L^−1): 79.24%
- IC50 [4]: 1.23 nM
- Inhibition (%) of mouse paw swelling [5]: 21.60%
- Inhibition (%) of mouse ear edema [6]: 33.20%
- IC50 [7]: 83.2 nM
- IC50 [8]: 3690 nM
- IC50 [9]: 2 nM
- Inhibition (%) of increase of cutaneous vascular permeability [10]: 38.70%
- Ki [11]: 68300 nM

SMILES: CCCCCCCCCCCCCCCCCCNC(=O)OCC(COC(=O)N(Cc1cccc[n+]1CC)C(C)=O)OC (stereo not shown) [CV-6209]
- rat paw swelling [12]: inhibit

SMILES: COc1ccc(C=CC(=O)CCN2CC(C)OC(C)C2)cc1O (stereo not shown) [Compound 36, 5-(2,6-Dimethylmorpholinyl)-1-(3-hydroxy-4-methoxyphenyl)-1-penten-3-one hydrochloride]
- Inhibition (%) of β-glucuronidase release ([4]; Irritant 2 × 10^−7 mol · L^−1): 129.72%
- IC50 [4]: 0.555 nM
- Inhibition (%) of mouse paw swelling [5]: 28.00%
- IC50 [7]: 44.8 nM
- IC50 [8]: 3230 nM
- IC50 [9]: 45.8 nM
- Inhibition (%) of increase of cutaneous vascular permeability [10]: 33.50%
- Ki [11]: 48100 nM

SMILES: COc1cc([C@H]2CC[C@H](c3cc(OC)c(OC)c(OC)c3)O2)cc(CNC(=O)N(C)O)c1OCCSc1ccc(Cl)cc1 [LDP-392]
- mouse ear edema [13]: significantly inhibit

- IC50 [14]: 4.05 nM
SMILES: COc1ccc(C=CC(=O)CCN2CCC(Cc3ccccc3)CC2)cc1 [Compound 22a, 5-[(4-Benzyl)piperidyl]-1-(4-methoxyphenyl)-1-penten-3-one hydrochloride]
- Inhibition (%) of β-glucuronidase release ([4]; Irritant 1 × 10^−6 mol · L^−1): 73.17%
- IC50 [4]: 562 nM
- Inhibition (%) of mouse paw swelling [5]: 23.33%
- Inhibition (%) of mouse ear edema [6]: 31.22%
- Inhibition (%) of increase of cutaneous vascular permeability [10]: 51.14%

SMILES: Cc1nnc2n1-c1sc3c(c1C(c1ccccc1Cl)=NC2)CC(C(=O)N1CCOCC1)C3 (stereo not shown) [WEB2170]
- increase of new vessels [15]: inhibit
- increase of TNF-α level in synovial fluid [16]: inhibit

SMILES: CN(C)C(=O)n1cc(C(=O)c2ccn3c2CS[C@@H]3c2cccnc2)c2ccc(-c3ccc(F)cc3)cc21 [Compound A-85783]
- rat ear edema [17]: significantly inhibit
